Active and inactive are the calls of the source. The calls are words filed in the database; no cut-off is given here.
Legend:
[1] = test system: Plasmodium cynomolgi; experiment: Antiplasmodial activity against hypnozoite Plasmodium cynomolgi B strain infected in Macaca mulatta hepatocytes incubated with sporozoite containing salivary gland homogenate obtained from dissected Anopheles dirus mosquitoes (infected with Plasmodium cynomolgi B strain) treatment started on day 4 post infection and continued daily for 4 days into fresh changed media until day 8 assessed as Liver stage (LS) activity by measuring prophylactic mode by immunofluorescent staining analysis; format: functional, organism-based; settings: Hepatocyte
[2] = test system: Plasmodium falciparum; experiment: Antiplasmodial activity against asexual blood-stage (ABS) MDR Plasmodium falciparum Dd2 infected in human erythrocytes assessed as reduction in fluorescence measured after 72 hrs by Malaria SYBR Green I-based Fluorescence (MSF) assay; format: functional, organism-based; settings: Dd2, Erythrocyte
[3] = test system: Plasmodium cynomolgi; experiment: Antiplasmodial activity against schizont Plasmodium cynomolgi B strain infected in Macaca mulatta hepatocytes incubated with sporozoite containing salivary gland homogenate obtained from dissected Anopheles dirus mosquitoes (infected with Plasmodium cynomolgi B strain) treatment started on day 4 post infection and continued daily for 4 days into fresh changed media until day 8 assessed as Liver stage (LS) activity by measuring prophylactic mode by immunofluorescent staining analysis; format: functional, organism-based; settings: Hepatocyte
[4] = test system: Plasmodium falciparum; experiment: Antiplasmodial activity against asexual blood-stage (ABS) CQ-sensitive Plasmodium falciparum D6 infected in human erythrocytes assessed as reduction in fluorescence measured after 72 hrs by Malaria SYBR Green I-based Fluorescence (MSF) assay; format: functional, organism-based; settings: D6, Erythrocyte
[5] = test system: Plasmodium cynomolgi; experiment: Antiplasmodial activity against hypnozoite Plasmodium cynomolgi B strain infected in Macaca mulatta hepatocytes incubated with sporozoite containing salivary gland homogenate obtained from dissected Anopheles dirus mosquitoes (infected with Plasmodium cynomolgi B strain) treatment started on day 4 post infection and continued daily for 4 days into fresh changed media until day 8 assessed as Liver stage (LS) activity by measuring radical cure mode by immunofluorescent staining analysis; format: functional, organism-based; settings: Hepatocyte
[6] = test system: Plasmodium falciparum; experiment: Antiplasmodial activity against asexual blood-stage (ABS) ATV-resistant clinical isolate Plasmodium falciparum Tm90-C2B infected in human erythrocytes assessed as reduction in fluorescence measured after 72 hrs by Malaria SYBR Green I-based Fluorescence (MSF) assay; format: functional, organism-based; settings: Erythrocyte
[7] = test system: Plasmodium cynomolgi; experiment: Antiplasmodial activity against schizont Plasmodium cynomolgi B strain infected in Macaca mulatta hepatocytes incubated with sporozoite containing salivary gland homogenate obtained from dissected Anopheles dirus mosquitoes (infected with Plasmodium cynomolgi B strain) treatment started on day 4 post infection and continued daily for 4 days into fresh changed media until day 8 assessed as Liver stage (LS) activity by measuring radical cure mode by immunofluorescent staining analysis; format: functional, organism-based; settings: Hepatocyte
[8] = test system: HepG2; experiment: Cytotoxicity against human HepG2 cells assessed as cell viability measured after 48 hrs by MTT assay; format: functional, cell-based; settings: HepG2, 48 h
[9] = Selectivity index, ratio of CC50 for Macaca mulatta hepatocytes to IC50 for antiplasmodial activity against schizont Plasmodium cynomolgi B strain infected in Macaca mulatta hepatocytes incubated with sporozoite containing salivary gland homogenate obtained from dissected Anopheles dirus mosquitoes (infected with Plasmodium cynomolgi B strain) treatment started on day 4 post infection and continued daily for 4 days into fresh changed media until day 8 assessed as Liver stage (LS) activity by measuring prophylactic mode by immunofluorescent staining analysis; format: toxicity, cell-based; settings: rhesus monkey, read-out: Selectivity Index
[10] = (§1) Cytotoxicity against Macaca mulatta hepatocytes assessed as cell viability measured after 48 hrs by MTT assay; format: toxicity, cell-based, Hepatocyte; settings: rhesus monkey
[11] = in vitro; settings: human, liver microsomes
[12] = Selectivity index, ratio of CC50 for Macaca mulatta hepatocytes to IC50 for antiplasmodial activity against hypnozoite Plasmodium cynomolgi B strain infected in Macaca mulatta hepatocytes incubated with sporozoite containing salivary gland homogenate obtained from dissected Anopheles dirus mosquitoes (infected with Plasmodium cynomolgi B strain) treatment started on day 4 post infection and continued daily for 4 days into fresh changed media until day 8 assessed as Liver stage (LS) activity by measuring prophylactic mode by immunofluorescent staining analysis; format: toxicity, cell-based; settings: rhesus monkey, read-out: Selectivity Index
[13] = mouse, microsomes, 1 h
[14] = Selectivity index, ratio of CC50 for Macaca mulatta hepatocytes to IC50 for antiplasmodial activity against hypnozoite Plasmodium cynomolgi B strain infected in Macaca mulatta hepatocytes incubated with sporozoite containing salivary gland homogenate obtained from dissected Anopheles dirus mosquitoes (infected with Plasmodium cynomolgi B strain) treatment started on day 4 post infection and continued daily for 4 days into fresh changed media until day 8 assessed as Liver stage (LS) activity by measuring radical cure mode by immunofluorescent staining analysis; format: toxicity, cell-based; settings: rhesus monkey, read-out: Selectivity Index
[15] = human, microsomes, 1 h
[16] = Toxicity in CF1 mouse infected with asexual blood-stage (ABS) Plasmodium yoelii MRA-428 assessed as behavioural change at 0.3 to 30 mg/kg, po treated 24 hrs post infection measured after 4 days; format: organism-based; settings: in vivo, dose 0.3-30 mg/kg
[17] = test system: Plasmodium berghei; experiment: In vivo antiplasmodial activity against luciferase expressing liver stage Plasmodium berghei ANKA MRA-868 sporozoites infected in Albino C57BL/6 mouse model assessed as blood stage infection at 40 mg/kg, po daily measured 72 hrs; format: functional, organism-based
[18] = test system: Hepatocyte; experiment: as §1; format: toxicity, cell-based; settings: rhesus monkey, 48 h
[19] = Toxicity in CF1 mouse infected with asexual blood-stage (ABS) Plasmodium yoelii MRA-428 assessed as clinical toxicity at 0.3 to 30 mg/kg, po treated 24 hrs post infection measured after 4 days; format: organism-based; settings: in vivo, dose 0.3-30 mg/kg
[20] = Selectivity index, ratio of CC50 for Macaca mulatta hepatocytes to IC50 for antiplasmodial activity against schizont Plasmodium cynomolgi B strain infected in Macaca mulatta hepatocytes incubated with sporozoite containing salivary gland homogenate obtained from dissected Anopheles dirus mosquitoes (infected with Plasmodium cynomolgi B strain) treatment started on day 4 post infection and continued daily for 4 days into fresh changed media until day 8 assessed as Liver stage (LS) activity by measuring radical cure mode by immunofluorescent staining analysis; format: toxicity, cell-based; settings: rhesus monkey, read-out: Selectivity Index
[21] = Toxicity in CF1 mouse infected with asexual blood-stage (ABS) Plasmodium yoelii MRA-428 assessed as hunching at 0.3 to 30 mg/kg, po treated 24 hrs post infection measured after 4 days; format: organism-based; settings: in vivo, 96 h, dose 0.3-30 mg/kg, time 4 day
[22] = Toxicity in CF1 mouse infected with asexual blood-stage (ABS) Plasmodium yoelii MRA-428 assessed as weight loss at 0.3 to 30 mg/kg, po treated 24 hrs post infection measured after 4 days; format: organism-based; settings: in vivo, 96 h, dose 0.3-30 mg/kg, time 4 day
[23] = Toxicity in CF1 mouse infected with asexual blood-stage (ABS) Plasmodium yoelii MRA-428 assessed as hyperactivity at 0.3 to 30 mg/kg, po treated 24 hrs post infection measured after 4 days; format: organism-based; settings: in vivo, 96 h, dose 0.3-30 mg/kg, time 4 day
[24] = Toxicity in CF1 mouse infected with asexual blood-stage (ABS) Plasmodium yoelii MRA-428 assessed as lethargy at 0.3 to 30 mg/kg, po treated 24 hrs post infection measured after 4 days; format: organism-based; settings: in vivo, 96 h, dose 0.3-30 mg/kg, time 4 day
[25] = Toxicity in CF1 mouse infected with asexual blood-stage (ABS) Plasmodium yoelii MRA-428 assessed as ruffled hair at 0.3 to 30 mg/kg, po treated 24 hrs post infection measured after 4 days; format: organism-based; settings: in vivo, 96 h, dose 0.3-30 mg/kg, time 4 day
[26] = test system: Plasmodium yoelii; experiment: In vivo antiplasmodial activity against asexual blood-stage (ABS) Plasmodium yoelii MRA-428 infected in 4-day suppression CF1 mouse model assessed as reduction in parasitemia by measuring cured mouse at 80 mg/kg, po treated 24 hrs post infection daily for 4 days; format: functional, organism-based
[27] = test system: Plasmodium yoelii; experiment: In vivo antiplasmodial activity against asexual blood-stage (ABS) Plasmodium yoelii MRA-428 infected in 4-day suppression CF1 mouse model assessed as reduction in parasitemia treated 24 hrs post infection daily measured on day 4; format: functional
[28] = test system: Plasmodium berghei; experiment: In vivo antiplasmodial activity against luciferase expressing liver stage Plasmodium berghei ANKA MRA-868 sporozoites infected in Albino C57BL/6 mouse model assessed as protection at 10 mg/kg, po daily measured 24 to 72 hrs by real-time In Vivo Imaging System (IVIS); format: functional; settings: time lower 24.0 hrs, time upper […]
[29] = test system: Plasmodium yoelii; experiment: In vivo antiplasmodial activity against asexual blood-stage (ABS) Plasmodium yoelii MRA-428 infected in 4-day suppression CF1 mouse model assessed as reduction in parasitemia by measuring protection at 10 mg/kg, po treated 24 hrs post infection daily for 4 days relative to control; format: functional; design: scale not given: the % may be the effect or the level left
[30] = test system: Plasmodium yoelii; experiment: In vivo antiplasmodial activity against asexual blood-stage (ABS) Plasmodium yoelii MRA-428 infected in 4-day suppression CF1 mouse model assessed as reduction in parasitemia by measuring cured mouse at 100 mg/kg, po single dose treated 24 hrs post infection; format: functional, organism-based
[31] = test system: Plasmodium yoelii; experiment: In vivo antiplasmodial activity against asexual blood-stage (ABS) Plasmodium yoelii MRA-428 infected in 4-day suppression CF1 mouse model assessed as reduction in parasitemia by measuring cured mouse at 60 mg/kg, po single dose treated 24 hrs post infection; format: functional, organism-based

SMILES	IC50 [1] [nM]	IC50 [2] [nM]	IC50 [3] [nM]	IC50 [4] [nM]	IC50 [5] [nM]	IC50 [6] [nM]	IC50 [7] [nM]	IC50 [8] [nM]	selectivity ratio at 96 h [9]	selectivity ratio at 96 h [12]	CLH [13] [µL/min/mg]	selectivity ratio at 96 h [14]	Activity [16]	CC50 [18] [nM]	Activity [19]	selectivity ratio at 96 h [20]	also measured
O=c1c2ccc(Oc3cccc(C(F)(F)F)c3)cc2[nH]c2cc(F)c(Cl)cc12	1390	3.87	360	5.19	> 20000	59.4	> 20000	> 200000	> 55.6	> 14.4	14.2	–	–	–	–	–	CC50 at 48 h [10]: > 20000 nM; half-life at 1 h [11]: > 1 h
O=c1c2ccc(OCc3cccc(OC(F)(F)F)c3)cc2[nH]c2cc(F)cc(Cl)c12	1170	0.004	150	0.03	4230	20.4	3520	> 200000	39.5	5.09	33.5	1.4	Non-toxic	5930	Non-toxic	1.68	t1/2 [15]: > 1 h; Activity [17]: Active; Out Of 5 - 5 Mouse Cured
CCCCCCOc1ccc2c(=O)c3c([nH]c2c1)CCCC3	> 20000	2.73	2820	0.477	> 20000	5.11	> 20000	> 200000	> 7.09	–	37.6	–	–	> 20000	–	–	Activity [21]: Non-toxic; Activity [22]: Non-toxic; Activity [23]: Non-toxic; Activity [24]: Non-toxic; Activity [25]: Non-toxic; Activity [17]: Active; Out Of 5 - 5 Mouse Cured
O=c1c2ccc(Oc3cccc(OC(F)(F)F)c3)cc2[nH]c2cc(F)c(Cl)cc12	870	3.15	120	3.57	> 20000	61.2	> 20000	> 200000	> 167	> 23	< 3.125	–	–	–	–	–	CC50 at 48 h [10]: > 20000 nM; half-life at 1 h [11]: > 1 h
O=c1c2cc(Oc3ccc(OC(F)(F)F)cc3)ccc2[nH]c2cc(Cl)cc(F)c12	330	4.27	30	4.18	> 20000	599	> 20000	> 200000	> 667	> 60.6	45.4	–	Non-toxic	> 20000	Non-toxic	–	Activity [26]: Active; ED90 [27]: 1.98 mg/kg
COc1cc(C)c2c(Oc3cccc(C(F)(F)F)c3)c(OC)cc(NC(C)CCCN)c2n1 (centres undefined) [TAFENOQUINE]	170	–	40	–	7810	–	5440	–	380	89.4	–	1.95	–	15200	–	2.79	Activity [28]: Not active; Out Of 5 - 0 Mouse Cured
O=c1c2ccc(Oc3ccc(OC(F)(F)F)cc3)cc2[nH]c2ccc(F)c(Cl)c12	530	0.84	80	1.03	6750	52.8	3450	> 200000	111	16.7	11.6	1.31	Non-toxic	8870	Non-toxic	2.57	t1/2 [15]: > 1 h; Activity [29]: 100%; Activity [30]: Active; ED50 [27]: 0.29 mg/kg; ED90 [27]: 0.33 mg/kg; Activity [31]: Active

Reference: ChEMBL document CHEMBL6134844, “Development of Next-Generation Antimalarial Acridones with Radical Cure Potential” (J Med Chem, 2025)
